We go through two compounds from EP4653451A1, “POLYPEPTIDE COMPOUND AND USE THEREOF” (Chengdu New Radiomedicine Technology Co., Ltd., priority 2023, dated 2024).

Series [1] deals with T1, human recombinant DPP4 protein (Homo sapiens, UniProt P27487).
T1 construct: purchased Acrobiosystems DP4-H5211
Briefly: Inhibitory activity against DPP4 protease activity (H-Gly-Pro-AMC fluorescence). The series is classed as biochemical. The following applies: 125 pM DPP4 working solution, 90 min at room temperature. The method, boiled down:
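125 pM DPP4 working solution and 250 µM H-Gly-Pro-AMC working solution (stock levels, not final) in 20 mM Tris-HCl, 100 mM NaCl, mixed with compound in 4-fold dilution series. Reaction 90 min at room temperature in the dark; AMC fluorescence read at ex 380/em 460 nm, IC50 fitted from the concentration series.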

Series [2] has as its target T2, human recombinant PREP protein (Homo sapiens, UniProt P48147).
T2 construct: purchased R&D systems 4308-SE-010
T2 sequence (P48147 1-710): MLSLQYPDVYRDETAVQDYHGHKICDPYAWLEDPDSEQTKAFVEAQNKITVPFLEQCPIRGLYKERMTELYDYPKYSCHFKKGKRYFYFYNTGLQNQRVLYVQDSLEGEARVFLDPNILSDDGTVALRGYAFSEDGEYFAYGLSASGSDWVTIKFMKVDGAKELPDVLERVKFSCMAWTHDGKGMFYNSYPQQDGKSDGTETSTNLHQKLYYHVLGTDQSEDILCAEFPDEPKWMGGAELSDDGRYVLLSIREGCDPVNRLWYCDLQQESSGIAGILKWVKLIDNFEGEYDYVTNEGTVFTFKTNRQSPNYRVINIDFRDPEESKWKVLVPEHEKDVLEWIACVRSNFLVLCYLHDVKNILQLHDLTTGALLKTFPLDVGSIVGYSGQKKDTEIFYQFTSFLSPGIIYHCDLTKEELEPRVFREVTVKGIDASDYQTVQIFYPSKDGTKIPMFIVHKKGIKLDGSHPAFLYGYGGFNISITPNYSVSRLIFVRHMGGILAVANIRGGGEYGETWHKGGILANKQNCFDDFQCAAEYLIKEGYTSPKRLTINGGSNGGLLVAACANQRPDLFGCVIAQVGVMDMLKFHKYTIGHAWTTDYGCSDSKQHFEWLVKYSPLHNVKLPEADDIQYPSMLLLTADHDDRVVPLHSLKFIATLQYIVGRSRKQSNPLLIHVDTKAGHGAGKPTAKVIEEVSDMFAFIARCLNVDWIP
Put plainly: Inhibitory activity against PREP protease activity, reported as PREP/FAP IC50 ratio. It is filed as biochemical. The following applies: ratio of PREP IC50 to FAP IC50. The protocol: The human recombinant PREP protein (R&D systems, 4308-SE-010) was formulated into a 125 pM working solution with a assay buffer (25 mM Tris-HCl, 250 mM NaCl, 2.5 mM DTT, 1 mg/mL BSA), and the PREP substrate (Z-Gly-Pro-AMC (LEONBIO, 68542-93-8)) was diluted to a 125 µM PREP substrate working solution with the assay buffer. 40 µl of PREP working solution and 20 µl of compounds at different concentrations (4-fold dilution) were taken, then 40 µl of PREP substrate working solution was added, and the mixture was uniformly mixed on a shaker at room temperature for 1 min. The uniformly mixed mixture was reacted at room temperature in the dark for 90 min. Reading was made by microplate reader at excitation and emission wavelengths of 380 nm and 460 nm. The original data was saved, and the IC50 value of the compound was obtained by analyzing the data with Graphpad PRISM.

Series [3] deals with T3, human recombinant FAP protein (Homo sapiens, UniProt Q12884).
T3 construct: purchased Acrobiosystems FAP-H82Q6
T3 sequence (Q12884 1-760): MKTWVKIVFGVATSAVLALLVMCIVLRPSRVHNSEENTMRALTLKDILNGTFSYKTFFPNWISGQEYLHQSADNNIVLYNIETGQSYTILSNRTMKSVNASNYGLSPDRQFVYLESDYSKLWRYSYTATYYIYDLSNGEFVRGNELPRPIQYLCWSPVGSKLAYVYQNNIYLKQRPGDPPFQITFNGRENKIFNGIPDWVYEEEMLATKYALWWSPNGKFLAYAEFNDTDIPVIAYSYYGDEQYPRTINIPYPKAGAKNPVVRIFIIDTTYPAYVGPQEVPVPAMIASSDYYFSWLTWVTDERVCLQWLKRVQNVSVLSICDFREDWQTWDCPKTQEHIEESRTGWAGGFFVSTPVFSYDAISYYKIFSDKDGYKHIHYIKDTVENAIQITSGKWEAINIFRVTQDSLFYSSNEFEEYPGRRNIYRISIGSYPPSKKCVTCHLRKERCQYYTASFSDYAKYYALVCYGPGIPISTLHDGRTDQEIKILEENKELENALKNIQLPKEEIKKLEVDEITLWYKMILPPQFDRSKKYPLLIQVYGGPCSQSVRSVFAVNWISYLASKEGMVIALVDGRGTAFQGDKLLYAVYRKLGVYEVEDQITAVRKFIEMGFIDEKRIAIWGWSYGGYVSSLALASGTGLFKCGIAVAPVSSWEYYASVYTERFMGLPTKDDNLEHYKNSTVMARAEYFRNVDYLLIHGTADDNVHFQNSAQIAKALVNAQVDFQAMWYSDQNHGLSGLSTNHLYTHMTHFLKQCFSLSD
Briefly: Inhibitory activity against FAP protease activity (Z-Gly-Pro-AMC fluorescence). The conditions noted are these: 125 pM FAP working solution, 90 min at room temperature; read-out: FAP IC50. It is filed as biochemical. The method in brief: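 Working solutions of 125 pM recombinant human FAP and 150 µM Z-Gly-Pro-AMC, in pH 7.5 Tris buffer with 1 M NaCl and 1 mg/mL BSA, combined with 4-fold compound dilutions and reacted 90 min at room temperature in the dark. AMC fluorescence (Ex 380/Em 460 nm) used to fit IC50.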

The next series in a line: in vitro. The conditions noted are these: CD-1, mouse, plasma.

Structures can show the parent of a compound that is named as a salt.

T1 sequence (P27487 whole entry): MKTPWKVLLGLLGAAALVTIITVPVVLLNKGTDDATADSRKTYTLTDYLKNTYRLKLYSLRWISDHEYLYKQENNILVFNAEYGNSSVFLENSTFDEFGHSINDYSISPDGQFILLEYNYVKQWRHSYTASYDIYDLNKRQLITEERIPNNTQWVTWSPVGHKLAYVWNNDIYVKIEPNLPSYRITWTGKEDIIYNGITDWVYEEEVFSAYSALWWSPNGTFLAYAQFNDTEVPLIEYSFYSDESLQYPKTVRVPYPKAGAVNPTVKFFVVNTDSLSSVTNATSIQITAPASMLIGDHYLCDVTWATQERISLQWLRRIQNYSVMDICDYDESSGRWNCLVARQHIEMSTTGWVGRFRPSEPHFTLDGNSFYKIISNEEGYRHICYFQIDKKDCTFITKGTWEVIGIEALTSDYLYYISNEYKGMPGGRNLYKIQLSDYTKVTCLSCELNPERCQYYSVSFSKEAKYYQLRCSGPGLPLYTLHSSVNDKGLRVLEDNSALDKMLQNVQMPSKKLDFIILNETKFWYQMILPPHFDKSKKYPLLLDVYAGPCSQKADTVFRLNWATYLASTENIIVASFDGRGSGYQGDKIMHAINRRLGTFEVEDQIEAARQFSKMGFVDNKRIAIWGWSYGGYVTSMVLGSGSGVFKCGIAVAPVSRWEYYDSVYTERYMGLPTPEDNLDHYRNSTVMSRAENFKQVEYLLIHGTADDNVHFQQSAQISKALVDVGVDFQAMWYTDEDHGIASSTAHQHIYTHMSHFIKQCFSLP
Method for in vitro: The plasma stability experiment was performed using plasma from CD-1 mice. The compounds were diluted to a concentration of 1 mM with methanol. To 0.792 mL of plasma, 8.00 µL of 1 mM of each test compound was added, and 50.0 µL of the plasma sample was taken after uniform mixing. The remaining sample was placed in a 37°C water bath and incubated for 24 h. […] After centrifugation, the sample was diluted 1-fold with 0.2% trifluoroacetic acid and analyzed by LC-MS/MS.

For orientation: IC50 means the concentration at which inhibition is half-maximal. By amount remaining is commonly meant the share of the starting amount still present when the sample was taken. Low values mean a greater loss, high ones greater stability. `CCCCCC(=O)N[C@H]1CSCc2cccc(c2F)CSC[C@@H](CNC(=O)C[C@H]2CC[C@H](NC(=O)CCNC(=O)CN3CCN(CC(=O)O)CCN(CC(=O)O)CCN(CC(=O)O)CC3)CC2)NC(=O)[C@H](Cc2ccccc2)NC(=O)[C@H](CCC(N)=O)NC(=O)[C@H]([C@@H](C)O)NC(=O)[C@@H]2CCCN2C(=O)[C@@H]2CCCN2C1=O` [Compound 15, Hex-Cys-Pro-Pro-Thr-Gln-Phe-Cys-CH2NH-(trans-4-aminocyclohexane acetic acid-betaAla-DOTA) (Cys bridge 2,6-bis(bromomethyl)fluorobenzene) trifluoroacetate]: the values for the IC50 in series [1] and in series [3] were over 10000 nM and 0.67 nM, respectively. For the same compound, the PREP/FAP entry in series [2] was “B (10000 > B > 3300)”. Also, the share remaining at 24 h, 10 µM in the series “in vitro” was 93%.
For `CCCCCC(=O)N[C@H]1CSCc2cccc(c2F)CSC[C@@H](CNC(=O)C[C@@H](C)NC(=O)[C@H]2CC[C@H](CNC(=O)CN3CCN(CC(=O)O)CCN(CC(=O)O)CCN(CC(=O)O)CC3)CC2)NC(=O)[C@H](Cc2ccccc2)NC(=O)[C@H](CCC(N)=O)NC(=O)[C@H]([C@@H](C)O)NC(=O)[C@@H]2CCCN2C(=O)[C@@H]2CCCN2C1=O` [Compound 16, Hex-Cys-Pro-Pro-Thr-Gln-Phe-Cys-CH2NH-(D-beta-HomoAla-tranexamic acid-DOTA) (Cys bridge 2,6-bis(bromomethyl)fluorobenzene) trifluoroacetate], in that order: over 10000 nM, 0.41 nM, “B (10000 > B > 3300)” and 96%.
